Measurements reported in ChEMBL document CHEMBL4184242, “Synthesis and antibacterial studies of teixobactin analogues with non-isostere substitution of enduracididine” (2018).
Converted amounts (≈) assume the structure as drawn.

How the values were obtained:
[1] = test system: Staphylococcus aureus; assay: Antibacterial activity against methicillin-susceptible Staphylococcus aureus ATCC 29213 by CLSI M100-S17 protocol based broth dilution method; assay type: functional
[2] = test system: Staphylococcus aureus; assay: Antibacterial activity against methicillin-resistant Staphylococcus aureus isolate SA1114 by CLSI M100-S17 protocol based broth dilution method; assay type: functional

Compound | MIC [1] [µg/mL] | MIC [2] [µg/mL]
CC[C@@H](C)[C@@H](NC(=O)[C@@H](CCC(N)=O)NC(=O)[C@H](CO)NC(=O)[C@@H](NC(=O)[C@@H](Cc1ccccc1)NC)[C@@H](C)CC)C(=O)N[C@H](C(=O)N[C@@H](CO)C(=O)N[C@H]1C(=O)N[C@@H](C)C(=O)N[C@@H](Cc2c[nH]c3ccccc23)C(=O)N[C@@H]([C@@H](C)CC)C(=O)O[C@H]1C)[C@@H](C)CC | 8 (≈ 6.28 µM) | 8 to 16 (≈ 6.28 to 12.6 µM)
CC[C@@H](C)[C@@H](NC(=O)[C@@H](CCC(N)=O)NC(=O)[C@H](CO)NC(=O)[C@@H](NC(=O)[C@@H](Cc1ccccc1)NC)[C@@H](C)CC)C(=O)N[C@H](C(=O)N[C@@H](CO)C(=O)N[C@H]1C(=O)N[C@@H](C)C(=O)N[C@@H](CO)C(=O)N[C@@H]([C@@H](C)CC)C(=O)O[C@H]1C)[C@@H](C)CC | 16 (≈ 13.6 µM) | 16 (≈ 13.6 µM)
CC[C@@H](C)[C@@H](NC(=O)[C@@H](CCC(N)=O)NC(=O)[C@H](CO)NC(=O)[C@@H](NC(=O)[C@@H](Cc1ccccc1)NC)[C@@H](C)CC)C(=O)N[C@H](C(=O)N[C@@H](CO)C(=O)N[C@H]1C(=O)N[C@@H](C)C(=O)N[C@@H](Cc2ccc(Cl)cc2)C(=O)N[C@@H]([C@@H](C)CC)C(=O)O[C@H]1C)[C@@H](C)CC | 1 (≈ 0.787 µM) | 4 (≈ 3.15 µM)
CC[C@@H](C)[C@@H](NC(=O)[C@@H](CCC(N)=O)NC(=O)[C@H](CO)NC(=O)[C@@H](NC(=O)[C@@H](Cc1ccccc1)NC)[C@@H](C)CC)C(=O)N[C@H](C(=O)N[C@@H](CO)C(=O)N[C@H]1C(=O)N[C@@H](C)C(=O)NC(C)(C)C(=O)N[C@@H]([C@@H](C)CC)C(=O)O[C@H]1C)[C@@H](C)CC | ≥ 32 | ≥ 32
CC[C@@H](C)[C@@H](NC(=O)[C@@H](CCC(N)=O)NC(=O)[C@H](CO)NC(=O)[C@@H](NC(=O)[C@@H](Cc1ccccc1)NC)[C@@H](C)CC)C(=O)N[C@H](C(=O)N[C@@H](CO)C(=O)N[C@H]1C(=O)N[C@@H](C)C(=O)N[C@@H](Cc2ccc(C)cc2)C(=O)N[C@@H]([C@@H](C)CC)C(=O)O[C@H]1C)[C@@H](C)CC | 1 (≈ 0.8 µM) | ≥ 32
CC[C@@H](C)[C@@H](NC(=O)[C@@H](CCC(N)=O)NC(=O)[C@H](CO)NC(=O)[C@@H](NC(=O)[C@@H](Cc1ccccc1)NC)[C@@H](C)CC)C(=O)N[C@H](C(=O)N[C@@H](CO)C(=O)N[C@H]1C(=O)N[C@@H](C)C(=O)N[C@H](CCCCN)C(=O)N[C@@H]([C@@H](C)CC)C(=O)O[C@H]1C)[C@@H](C)CC | ≥ 32 | ≥ 32
CC[C@@H](C)[C@@H](NC(=O)[C@@H](CCC(N)=O)NC(=O)[C@H](CO)NC(=O)[C@@H](NC(=O)[C@@H](Cc1ccccc1)NC)[C@@H](C)CC)C(=O)N[C@H](C(=O)N[C@@H](CO)C(=O)N[C@H]1C(=O)N[C@@H](C)C(=O)N[C@@H](Cc2ccc(F)cc2)C(=O)N[C@@H]([C@@H](C)CC)C(=O)O[C@H]1C)[C@@H](C)CC | 0.5 (≈ 0.399 µM) | 4 (≈ 3.19 µM)
